Measurements published in ChEMBL document CHEMBL5331134, “Identification of Brain-Penetrant ATP-Competitive mTOR Inhibitors for CNS Syndromes” (J Med Chem, 2023).
≈ marks a conversion by molar mass, not a printed value.

Columns and labels:
Cytochrome P450 3A4 [1] = target: T1, Cytochrome P450 3A4 (Homo sapiens, UniProt P08684); assay: Inhibition of CYP3A4 (unknown origin) assessed as Kobs; type: ADME
[2] = Apparent permeability across apical to basolateral side in MDCK-MDR1 cells; type: ADME, cell-based, Canis lupus familiaris; details: dog
[3] = Apparent permeability across basolateral to apical side in MDCK-MDR1 cells; type: ADME, cell-based, Canis lupus familiaris; details: dog
[4] = Efflux ratio of apparent permeability across basolateral to apical side over apical to basolateral side in MDCK-MDR1 cells; type: ADME, cell-based, Canis lupus familiaris; details: dog
[5] = target: Serine/threonine-protein kinase ATR (Homo sapiens, UniProt Q13535); assay: Inhibition of ATR (unknown origin)-driven CHK1 phosphorylation
[6] = target: 3',5'-cyclic-AMP phosphodiesterase 4D (Homo sapiens, UniProt Q08499); assay: Inhibition of PDE4D (unknown origin)
[7] = Solubility of compound at pH 6.8; type: physicochemical; details: buffer
[8] = target: T2, Serine/threonine-protein kinase mTOR (Mus musculus, UniProt Q9JLN9); assay: Inhibition of mTOR in TSC1 knockout mouse MEF cells assessed as reduction in phosphorylated S6 level at serine 240/244 residues incubated for 2 hrs by Hoechst/Alexa Fluor 647 staining based analysis; type: cell-based
[9] = target: T2, Serine/threonine-protein kinase mTOR; assay: Inhibition of mTOR in Tsc1 knockout mouse neurons assessed as reduction in phosphorylated S6 level incubated for 4 hrs by Hoechst staining based immunofluorescence analysis; type: cell-based, Neuron
[10] = Phototoxicity against mouse BALB/3T3 clone A31 cells assessed as photo-irradiation factor incubated for 1 hr followed by irradiated with 5 J/cm^2 of light dose measured after 24 hrs by neutral red uptake assay; type: toxicity, cell-based; details: balb/3t3 clone a31, 1 h
[11] = Genotoxicity in human TK6 cells assessed as micronuclei formation by micronucleus test; type: toxicity, cell-based
Cytochrome P450 3A4 [12] = target: T1, Cytochrome P450 3A4; assay: Inhibition of CYP3A4 (unknown origin); type: ADME
CYP2D6 = CYP2D6 (Homo sapiens, UniProt P10635); assay: Inhibition of CYP2D6 (unknown origin); type: ADME
CYP2C9 = CYP2C9 (Homo sapiens, UniProt P11712); assay: Inhibition of CYP2C9 (unknown origin); type: ADME
[13] = Metabolic stability in mouse liver microsomes assessed as intrinsic clearance at 1 uM incubated for 30 mins in presence of NADPH by LC-MS/MS analysis; type: ADME, Microsome; details: read-out: CLH
[14] = Metabolic stability in dog liver microsomes assessed as intrinsic clearance at 1 uM incubated for 30 mins in presence of NADPH by LC-MS/MS analysis; type: ADME, Canis lupus familiaris, Microsome; details: read-out: CLH
[15] = Metabolic stability in cynomolgus monkey liver microsomes assessed as intrinsic clearance at 1 uM incubated for 30 mins in presence of NADPH by LC-MS/MS analysis; type: ADME, Macaca fascicularis, Microsome; details: read-out: CLH
[16] = Metabolic stability in human liver microsomes assessed as intrinsic clearance at 1 uM incubated for 30 mins in presence of NADPH by LC-MS/MS analysis; type: ADME, Microsome; details: read-out: CLH
[17] = target: Serine/threonine-protein kinase mTOR (Homo sapiens) (UniProt P42345); assay: Inhibition of mTOR (unknown origin) assessed as residual activity at 10 uM relative to control
[18] = target: Myosin light chain kinase, smooth muscle (Homo sapiens) (UniProt Q15746); assay: Inhibition of MYLK (unknown origin) assessed as residual activity at 10 uM relative to control
[19] = target: 1-phosphatidylinositol 3-phosphate 5-kinase (Homo sapiens) (UniProt Q9Y2I7); assay: Inhibition of PIKfyve in human U2OS cells coexpressing GFP-tagged FoxO3alpha assessed as residual activity at 10 uM incubated for 2 to 24 hrs by Hoechst staining based analysis relative to control; type: cell-based; details: time 2-24 hrs
[20] = target: Dual specificity tyrosine-phosphorylation-regulated kinase 1A (Homo sapiens) (UniProt Q13627); assay: Inhibition of DYRK1A (unknown origin) assessed as residual activity at 10 uM relative to control
[21] = Phototoxicity against mouse BALB/3T3 clone A31 cells assessed as reduction in cell viability incubated for 1 hr followed by irradiated with 5 J/cm^2 of light dose measured after 24 hrs by neutral red uptake assay; type: toxicity, cell-based; details: balb/3t3 clone a31, 1 h
[22] = Genotoxicity in human TK6 cells assessed as micronuclei formation in presence of S9 fraction measured after 3 hrs by micronucleus test; type: toxicity, subcellular; details: s9, 3 h
[23] = Genotoxicity in human TK6 cells assessed as micronuclei formation in presence of S9 fraction measured after 20 hrs by micronucleus test; type: toxicity, subcellular; details: s9, 20 h
[24] = Genotoxicity in human TK6 cells assessed as micronuclei formation in absence of S9 fraction measured after 3 hrs by micronucleus test; type: toxicity, cell-based; details: tk6, 3 h
[25] = Genotoxicity in human TK6 cells assessed as micronuclei formation in absence of S9 fraction measured after 20 hrs by micronucleus test; type: toxicity, cell-based; details: tk6, 20 h

Serine/threonine-protein kinase ATR, sequence (Q13535 whole entry): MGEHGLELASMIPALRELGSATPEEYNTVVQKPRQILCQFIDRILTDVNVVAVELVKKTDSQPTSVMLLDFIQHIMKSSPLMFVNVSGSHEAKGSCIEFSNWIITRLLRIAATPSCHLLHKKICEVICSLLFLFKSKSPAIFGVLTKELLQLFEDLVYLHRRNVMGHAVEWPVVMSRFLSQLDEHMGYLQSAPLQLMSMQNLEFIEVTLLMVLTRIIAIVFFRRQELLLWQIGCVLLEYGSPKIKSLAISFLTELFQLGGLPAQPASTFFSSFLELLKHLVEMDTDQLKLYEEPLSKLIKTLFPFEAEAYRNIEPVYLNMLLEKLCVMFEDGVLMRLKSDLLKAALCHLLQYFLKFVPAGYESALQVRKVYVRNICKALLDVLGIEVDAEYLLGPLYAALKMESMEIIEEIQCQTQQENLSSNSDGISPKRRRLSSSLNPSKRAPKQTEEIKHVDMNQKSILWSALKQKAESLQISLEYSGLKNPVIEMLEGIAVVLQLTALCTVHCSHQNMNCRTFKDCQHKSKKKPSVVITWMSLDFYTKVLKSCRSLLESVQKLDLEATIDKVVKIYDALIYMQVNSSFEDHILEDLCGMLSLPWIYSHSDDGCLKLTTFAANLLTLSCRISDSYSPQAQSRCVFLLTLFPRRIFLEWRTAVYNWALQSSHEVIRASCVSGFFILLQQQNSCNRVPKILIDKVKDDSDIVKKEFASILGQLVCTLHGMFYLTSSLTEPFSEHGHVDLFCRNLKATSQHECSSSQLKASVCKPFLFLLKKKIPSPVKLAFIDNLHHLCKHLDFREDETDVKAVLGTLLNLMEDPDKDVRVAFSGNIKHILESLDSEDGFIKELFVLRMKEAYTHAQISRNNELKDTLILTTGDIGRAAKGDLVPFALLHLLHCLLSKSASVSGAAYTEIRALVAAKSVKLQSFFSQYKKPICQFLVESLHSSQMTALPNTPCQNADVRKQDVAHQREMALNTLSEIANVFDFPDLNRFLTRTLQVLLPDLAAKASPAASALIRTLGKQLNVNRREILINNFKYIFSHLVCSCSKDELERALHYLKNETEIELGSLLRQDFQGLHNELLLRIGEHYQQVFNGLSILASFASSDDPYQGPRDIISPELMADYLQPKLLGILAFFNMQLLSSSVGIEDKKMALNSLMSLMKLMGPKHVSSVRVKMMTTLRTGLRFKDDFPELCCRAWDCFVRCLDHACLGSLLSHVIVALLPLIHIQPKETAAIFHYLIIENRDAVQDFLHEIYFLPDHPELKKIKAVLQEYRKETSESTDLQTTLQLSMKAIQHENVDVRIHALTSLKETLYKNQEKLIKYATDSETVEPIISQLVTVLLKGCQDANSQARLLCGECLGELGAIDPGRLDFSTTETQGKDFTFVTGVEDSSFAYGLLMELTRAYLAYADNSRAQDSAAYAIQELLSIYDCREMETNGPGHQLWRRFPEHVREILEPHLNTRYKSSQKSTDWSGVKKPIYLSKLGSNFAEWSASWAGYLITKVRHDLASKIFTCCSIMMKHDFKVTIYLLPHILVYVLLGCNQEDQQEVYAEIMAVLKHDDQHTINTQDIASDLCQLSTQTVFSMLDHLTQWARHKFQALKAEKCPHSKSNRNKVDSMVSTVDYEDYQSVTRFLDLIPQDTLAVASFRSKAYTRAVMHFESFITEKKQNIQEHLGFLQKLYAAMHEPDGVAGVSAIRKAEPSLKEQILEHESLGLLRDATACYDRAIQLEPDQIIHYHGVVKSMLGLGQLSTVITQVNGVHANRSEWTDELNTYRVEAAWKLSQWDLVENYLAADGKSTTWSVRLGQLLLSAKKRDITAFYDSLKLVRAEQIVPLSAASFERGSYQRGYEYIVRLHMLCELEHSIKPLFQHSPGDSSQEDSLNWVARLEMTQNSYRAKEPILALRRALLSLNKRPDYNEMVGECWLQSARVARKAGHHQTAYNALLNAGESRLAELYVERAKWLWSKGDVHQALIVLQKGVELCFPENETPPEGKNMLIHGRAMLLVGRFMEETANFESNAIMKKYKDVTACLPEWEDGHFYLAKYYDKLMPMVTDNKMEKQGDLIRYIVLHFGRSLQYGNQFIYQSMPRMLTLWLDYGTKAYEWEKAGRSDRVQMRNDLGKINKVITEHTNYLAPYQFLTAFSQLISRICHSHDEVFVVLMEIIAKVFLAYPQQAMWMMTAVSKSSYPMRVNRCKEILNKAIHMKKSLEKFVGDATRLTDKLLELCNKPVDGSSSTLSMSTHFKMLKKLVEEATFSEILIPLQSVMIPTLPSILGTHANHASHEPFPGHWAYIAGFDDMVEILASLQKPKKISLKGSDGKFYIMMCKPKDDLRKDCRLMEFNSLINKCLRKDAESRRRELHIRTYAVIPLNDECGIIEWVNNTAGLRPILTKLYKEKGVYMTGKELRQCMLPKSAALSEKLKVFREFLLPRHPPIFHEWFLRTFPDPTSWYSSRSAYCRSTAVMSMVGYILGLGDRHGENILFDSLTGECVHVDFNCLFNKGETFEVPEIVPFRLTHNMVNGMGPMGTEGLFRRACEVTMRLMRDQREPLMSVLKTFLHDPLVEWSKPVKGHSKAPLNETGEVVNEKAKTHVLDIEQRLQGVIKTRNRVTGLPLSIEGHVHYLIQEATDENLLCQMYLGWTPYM
T1 sequence (P08684 whole entry): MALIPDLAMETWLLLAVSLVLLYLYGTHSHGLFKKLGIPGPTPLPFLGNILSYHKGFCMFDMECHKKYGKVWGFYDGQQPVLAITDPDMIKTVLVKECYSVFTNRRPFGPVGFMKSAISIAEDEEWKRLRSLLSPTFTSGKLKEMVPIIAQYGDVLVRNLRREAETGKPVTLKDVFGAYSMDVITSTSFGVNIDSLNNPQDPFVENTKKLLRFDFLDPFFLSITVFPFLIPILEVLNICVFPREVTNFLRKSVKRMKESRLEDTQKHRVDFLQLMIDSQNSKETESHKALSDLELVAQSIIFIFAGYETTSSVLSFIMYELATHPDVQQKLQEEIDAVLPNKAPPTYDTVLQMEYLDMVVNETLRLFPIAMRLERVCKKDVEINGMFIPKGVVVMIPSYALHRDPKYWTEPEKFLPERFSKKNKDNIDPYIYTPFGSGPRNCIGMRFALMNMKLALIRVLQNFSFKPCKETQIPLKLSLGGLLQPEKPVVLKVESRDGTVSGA
3',5'-cyclic-AMP phosphodiesterase 4D, sequence (Q08499 whole entry): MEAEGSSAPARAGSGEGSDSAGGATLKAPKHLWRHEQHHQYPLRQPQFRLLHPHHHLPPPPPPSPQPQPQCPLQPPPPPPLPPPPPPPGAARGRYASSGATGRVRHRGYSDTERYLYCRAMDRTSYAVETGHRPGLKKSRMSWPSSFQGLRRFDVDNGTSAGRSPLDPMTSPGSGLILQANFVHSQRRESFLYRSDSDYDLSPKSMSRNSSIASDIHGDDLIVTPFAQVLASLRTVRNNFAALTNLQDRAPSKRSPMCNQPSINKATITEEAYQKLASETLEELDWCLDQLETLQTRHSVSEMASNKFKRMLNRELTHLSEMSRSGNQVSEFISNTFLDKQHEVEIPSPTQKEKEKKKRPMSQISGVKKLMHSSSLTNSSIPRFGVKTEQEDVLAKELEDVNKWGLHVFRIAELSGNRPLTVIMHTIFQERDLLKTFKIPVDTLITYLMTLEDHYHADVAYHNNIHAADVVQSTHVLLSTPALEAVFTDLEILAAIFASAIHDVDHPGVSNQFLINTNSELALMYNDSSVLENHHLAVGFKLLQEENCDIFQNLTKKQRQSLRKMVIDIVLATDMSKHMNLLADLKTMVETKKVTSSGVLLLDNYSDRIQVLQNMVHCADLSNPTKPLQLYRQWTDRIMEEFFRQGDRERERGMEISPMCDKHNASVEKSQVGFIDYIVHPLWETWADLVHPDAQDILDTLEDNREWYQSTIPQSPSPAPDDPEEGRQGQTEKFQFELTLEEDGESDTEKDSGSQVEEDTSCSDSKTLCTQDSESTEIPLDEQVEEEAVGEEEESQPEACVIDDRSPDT
CYP2C9, sequence (P11712 whole entry): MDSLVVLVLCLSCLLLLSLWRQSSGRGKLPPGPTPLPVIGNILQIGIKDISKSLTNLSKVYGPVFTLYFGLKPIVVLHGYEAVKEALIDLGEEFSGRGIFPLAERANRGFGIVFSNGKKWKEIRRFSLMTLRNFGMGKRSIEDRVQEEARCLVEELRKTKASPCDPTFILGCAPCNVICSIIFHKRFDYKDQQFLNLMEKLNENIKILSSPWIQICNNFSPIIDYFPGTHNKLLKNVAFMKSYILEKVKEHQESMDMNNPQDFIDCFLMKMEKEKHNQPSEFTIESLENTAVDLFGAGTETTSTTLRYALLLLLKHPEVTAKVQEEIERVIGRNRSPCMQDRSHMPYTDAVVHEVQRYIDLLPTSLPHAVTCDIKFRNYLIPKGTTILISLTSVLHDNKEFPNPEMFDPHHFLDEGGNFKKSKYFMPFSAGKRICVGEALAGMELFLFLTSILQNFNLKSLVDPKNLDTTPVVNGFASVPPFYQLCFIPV
CYP2D6, sequence (P10635 whole entry): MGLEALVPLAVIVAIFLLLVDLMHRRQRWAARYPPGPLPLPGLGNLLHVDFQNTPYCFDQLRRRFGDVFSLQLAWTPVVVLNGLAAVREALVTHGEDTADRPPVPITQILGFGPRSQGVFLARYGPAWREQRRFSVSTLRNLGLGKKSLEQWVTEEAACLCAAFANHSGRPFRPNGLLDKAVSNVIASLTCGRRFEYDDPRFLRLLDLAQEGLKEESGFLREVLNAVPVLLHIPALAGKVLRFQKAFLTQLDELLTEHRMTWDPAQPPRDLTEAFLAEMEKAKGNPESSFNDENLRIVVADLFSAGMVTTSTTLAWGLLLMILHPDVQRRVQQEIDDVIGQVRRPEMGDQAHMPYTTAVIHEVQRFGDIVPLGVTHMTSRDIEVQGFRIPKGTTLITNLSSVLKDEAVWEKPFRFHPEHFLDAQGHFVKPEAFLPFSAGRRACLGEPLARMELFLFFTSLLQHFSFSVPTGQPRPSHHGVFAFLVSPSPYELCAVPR

## C[C@@H]1COCCN1c1cc(N2CCOC[C@@H]2C)nc2[nH]c(-c3cc(O)ccc3F)nc12
Cytochrome P450 3A4 [1]
  Kobs: 0.004 min⁻¹
[2]
  Papp A→B: 256 nm/s
[3]
  Papp B→A: 155 nm/s
[4]
  efflux ratio: 0.61
[5]
  IC50: 7140 nM
[6]
  IC50: 6000 nM
[7]
  solubility: 0.053 mg/mL (≈ 124 µM)

## C[C@@H]1COCCN1c1nc(N2CCOC[C@@H]2C)cc2sc(-c3cc[nH]n3)nc12
[8]
  IC50: 96 nM
[6]
  IC50: 960 nM

## C[C@@H]1COCCN1c1cc(N2C3CCC2COC3)nc2[nH]c(-c3ccccn3)nc12
[8]
  IC50: 6.6 nM
Cytochrome P450 3A4 [1]
  Kobs: 0.036 min⁻¹
[2]
  Papp A→B: 95.7 nm/s
[3]
  Papp B→A: 80.4 nm/s
[4]
  efflux ratio: 0.84
[5]
  IC50: 2250 nM
[6]
  IC50: 9200 nM
[7]
  solubility: < 0.002 mg/mL

## CO[C@H]1C[C@@H]2CC[C@@H](C)[C@@](O)(O2)C(=O)C(=O)N2CCCC[C@H]2C(=O)O[C@H]([C@H](C)C[C@@H]2CC[C@@H](OCCO)[C@H](OC)C2)CC(=O)[C@H](C)/C=C(\C)[C@@H](O)[C@@H](OC)C(=O)[C@H](C)C[C@H](C)/C=C/C=C/C=C/1C [EVEROLIMUS]
[9]
  IC50: 0.005 nM

## C[C@@H]1COCCN1c1nc(N2CCOC[C@@H]2C)cc2[nH]c(-c3cc[nH]n3)nc12
[8]
  IC50: 46 nM
[6]
  IC50: 11000 nM

## C[C@@H]1COCCN1c1cc(N2CCOC[C@@H]2C)nc2[nH]c(-c3cc[nH]n3)cc12
[8]
  IC50: 34 nM
[6]
  IC50: 16000 nM

## C[C@@H]1COCCN1c1cc(N2CCOC[C@@H]2C)cc2sc(-c3cc[nH]n3)nc12
[8]
  IC50: 15 nM
[6]
  IC50: 42 nM

## C[C@@H]1COCCN1c1cc(N2CCOC[C@@H]2C)nc2[nH]c(-c3nccs3)nc12
Cytochrome P450 3A4 [1]
  Kobs: 0.021 min⁻¹
[2]
  Papp A→B: 127 nm/s
[3]
  Papp B→A: 82.4 nm/s
[4]
  efflux ratio: 0.66
[5]
  IC50: 24000 nM
[6]
  IC50: 21000 nM
[7]
  solubility: 0.25 mg/mL (≈ 624 µM)

## C[C@@H]1COCCN1c1nc(N2CCOC[C@@H]2C)nc2[nH]c(-c3cc[nH]n3)nc12
[8]
  IC50: 16 nM
[6]
  IC50: 4900 nM

## C[C@@H]1COCCN1c1nc(N2CCOC[C@@H]2C)nc2sc(-c3cc[nH]n3)nc12
[8]
  IC50: 5 nM
[10]
  Activity: 253
[11]
  Activity: Toxic
Cytochrome P450 3A4 [12]
  IC50: 33200 nM
CYP2D6
  IC50: > 50000 nM
CYP2C9
  IC50: > 50000 nM
Cytochrome P450 3A4 [1]
  Kobs: 0.006 min⁻¹
[13]
  microsomal CLint at 1 µM: 22 µL/min/mg
[14]
  microsomal CLint at 1 µM: 26 µL/min/mg
[15]
  microsomal CLint at 1 µM: 82 µL/min/mg
[16]
  microsomal CLint at 1 µM: 92 µL/min/mg
[2]
  Papp A→B: 274 nm/s
[3]
  Papp B→A: 254 nm/s
[17]
  Activity: 1.3%
[18]
  Activity: 0.15%
[19]
  Activity: 0.3%
[20]
  Activity: 0.15%
[21]
  Activity: Toxic
[22]
  Activity: Toxic
[23]
  Activity: Toxic
[24]
  Activity: Toxic
[25]
  Activity: Toxic

## C[C@@H]1COCCN1c1cc(N2CCOC[C@@H]2C)nc2[nH]c(-c3cc[nH]n3)nc12
[8]
  IC50: 7.7 nM
Cytochrome P450 3A4 [1]
  Kobs: 0.004 min⁻¹
[2]
  Papp A→B: 159 nm/s
[3]
  Papp B→A: 400 nm/s
[4]
  efflux ratio: 2.52
[5]
  IC50: 1110 nM
[6]
  IC50: 18000 nM
[7]
  solubility: 0.16 mg/mL (≈ 417 µM)
